Results reported in patent publication US10683520B2, “Polycarboxylic acid extraction” (PURAC BIOCHEM BV, priority 2011, dated 2020).

Assay: Forward extraction of acid from salt-containing aqueous feed into methyl-isobutylketone and back extraction into water
Type: physicochemical
Settings: 20° C.; for DBE (distribution ratio in back extraction, [acid]organic/[acid]water): MIBK organic phase / pure water; for [acid] aqueous fraction after back extraction: feed with 15 wt. % MgCl2 (acid in feed per Table 1.1), back extraction into pure water; for [acid] aqueous fraction after back extraction / DFE (distribution ratio in forward extraction, [acid]organic/[acid]water) / concentration ratio (acid concentration in product / acid concentration in feed): MIBK; for DFE (distribution ratio in forward extraction, [acid]organic/[acid]water) / concentration ratio (acid concentration in product / acid concentration in feed): feed with 15 wt. % MgCl2
Source text: Forward extraction and back extraction as used in the method of the invention are based on the difference in solubility of the carboxylic acid in water and the organic solvent at different temperatures. The solubility of a compound in one solvent relative to another solvent can be expressed in terms of the distribution ratio (DR). […] The distribution ratio may be defined as the ratio of the carboxylic acid concentration dissolved in the organic phase ([carboxylic acid]organic) over the concentration of the carboxylic acid dissolved in water ([carboxylic acid]water), provided that the two phases are in equilibrium with each other: DR=[carboxylic acid]organic/[carboxylic acid]water (1)
The general procedure is set up to mimic a continuous extraction process.
A feed solution was prepared comprising acid and salt in the amounts stipulated in the table. The solutions were stirred overnight.
1000 g of this feed solution was mixed with approximately 100 g of methyl-isobutylketone as solvent and stirred at 20° C. for minimum of 15 minutes. The mixture was transferred to a separation funnel where phases were separated. Samples of both phases were taken for analysis. Then approximately 100 g of organic phase was mixed with 10 g of pure water and stirred for minimum of 15 min at 20° C. Subsequently the whole mixture is again transferred to the separation funnel, phases are left to separate and samples of both phases are taken. Samples were analysed on acid content.
These tables also give the concentration ratio, which is the ratio between the acid concentration in the product and the acid concentration in the feed.
The composition of the starting solution and the acid concentration in the products is in Table 2.1 below.

SMILES	DBE (distribution ratio in back extraction, [acid]organic/[acid]water)	[acid] aqueous fraction after back extraction	DFE (distribution ratio in forward extraction, [acid]organic/[acid]water)	concentration ratio (acid concentration in product / acid concentration in feed)
C=C(CC(=O)O)C(=O)O [Itaconic acid, itaconic acid]	1.07	2.8 wt. %	2.83	1.9
O=C(O)/C=C/C(=O)O [Fumaric acid, fumaric acid]	0.24	0.21 wt. %	1.75	1.8
